Source: patent US6855729B2, “Treatment of fibromyalgia and related fatigue syndromes using antagonists or partial agonists of 5HT1a receptors” (priority 2001, dated 2005)

Key:
[1] = system: patients with fibromyalgia; assay: Open label treatment study in fibromyalgia / chronic fatigue syndrome; type: in vivo, human; conditions: 2.5 mg three times daily
Experimental: Five patients with fibromyalgia (ACR criteria) who also met criteria for chronic fatigue syndrome (CDC criteria) gave informed consent to take part in this open label treatment study. All were treated with pindolol 2.5 mg three times daily.

5HT1a receptor = target: T1, 5HT1a receptor (Homo sapiens, UniProt P08908); assay: Buspirone challenge, prolactin release; type: in vivo; conditions: buspirone 30 mg orally; for Prolactin AUC (mean±SD): blood 0-180 min
T1 construct: Buspirone (30 mg) or matching placebo was administered orally at 0900 h (Time 0); from tissue; host or cells: living human subjects (central receptors)
T1 sequence (P08908 1-422): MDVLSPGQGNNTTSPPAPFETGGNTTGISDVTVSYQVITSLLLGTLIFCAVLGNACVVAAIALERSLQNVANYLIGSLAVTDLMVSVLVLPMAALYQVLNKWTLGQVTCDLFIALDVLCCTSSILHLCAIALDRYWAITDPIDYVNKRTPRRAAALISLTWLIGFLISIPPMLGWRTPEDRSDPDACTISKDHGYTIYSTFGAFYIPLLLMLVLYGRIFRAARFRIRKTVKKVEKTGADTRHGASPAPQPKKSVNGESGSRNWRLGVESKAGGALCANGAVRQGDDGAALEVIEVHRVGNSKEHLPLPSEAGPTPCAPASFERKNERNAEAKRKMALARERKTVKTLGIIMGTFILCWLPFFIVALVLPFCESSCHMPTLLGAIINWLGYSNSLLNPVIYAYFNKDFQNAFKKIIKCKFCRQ
Experimental: A total of 12 subjects (9 female/3 male) and 12 healthy comparison subjects (9 female/3 male) gave fully informed consent to take part in the study. […] All patients fulfilled criteria for both fibromyalgia (ACR criteria) and chronic fatigue syndrome (CDC criteria). […] Buspirone (30 mg) or matching placebo was administered orally at 0900 h (Time 0). Blood was taken at 0, 30, 60, 90, 120 and 180 min.

Structure (SMILES) | Time to significant improvement in symptoms ([1]; from commencing treatment) | Effect on symptoms, energy levels and general wellbeing ([1]; open label) | Patients showing a significant improvement in symptoms ([1]; open label, five patients with fibromyalgia and chronic fatigue syndrome) | Prolactin levels after challenge (5HT1a receptor; all subjects (patients and healthy)) | Prolactin AUC (mean±SD) (5HT1a receptor; healthy subjects) | Prolactin AUC (mean±SD) (5HT1a receptor; patients with fibromyalgia and chronic fatigue syndrome)
CC(C)NCC(O)COc1cccc2[nH]ccc12 (racemic) [pindolol] | ≤ 10 days | reduction in all symptoms and an increase in energy levels and general wellbeing | Four of 5 |  |  | 
O=C1CC2(CCCC2)CC(=O)N1CCCCN1CCN(c2ncccn2)CC1 [Buspirone] |  |  |  | rose in all subjects | 27±35 | 49±28
